Source: ChEMBL document CHEMBL1150308, “Cytotoxic constituents from Brazilian red propolis and their structure-activity relationship” (Bioorg Med Chem, 2008)

Legend:
Format in all cases: functional, cell-based
A549 = assay: Cytotoxicity against human A549 cells after 72 hrs by MTT assay; details: A549, 72 h
HeLa = assay: Cytotoxicity against human HeLa cells after 72 hrs by MTT assay
HT-1080 = assay: Cytotoxicity against human HT1080 cells after 72 hrs by MTT assay; details: HT-1080, 72 h
[1] = Cytotoxicity against mouse B16-BL6 cells after 72 hrs by MTT assay; details: B16-BL6, 72 h
[2] = Cytotoxicity against mouse LLC cells after 72 hrs by MTT assay; details: Lewis lung carcinoma
[3] = Cytotoxicity against mouse colon 26-L5 cells after 72 hrs by MTT assay

Compound | IC50 (A549) [µM] | IC50 (HeLa) [µM] | IC50 (HT-1080) [µM] | IC50 [1] [µM] | IC50 [2] [µM] | IC50 [3] [µM]
O=C(/C=C/c1ccccc1)c1ccc(O)cc1O [2',4'-DIHYDROXYCHALCONE] | 41.6 | 23.1 | 34 | 44.3 | 39.5 | 7.4
COc1ccc([C@H]2OC[C@H]3[C@@H]2CO[C@@H]3c2ccc(OC)c(OC)c2)cc1OC [(+)-EUDESMIN] | > 100 | > 100 | > 100 | > 100 | > 100 | > 100
COc1cc([C@@H]2OC[C@@H]3[C@H]2CO[C@H]3c2ccc(O)c(OC)c2)ccc1O [(+)-PINORESINOL] | > 100 | 92.5 | > 100 | > 100 | > 100 | > 100
COc1c(O)cc2oc(-c3ccccc3)c(O)c(=O)c2c1O [ALNUSIN] | > 100 | > 100 | > 100 | > 100 | > 100 | > 100
COc1c(O)cc2c(c1O)C(=O)[C@H](O)[C@@H](c1ccccc1)O2 [ALNUSTINOL] | > 100 | > 100 | > 100 | > 100 | > 100 | > 100
COc1ccc(-c2coc3cc(O)cc(O)c3c2=O)cc1 [BIOCHANIN] | > 100 | > 100 | > 100 | > 100 | > 100 | 98
COc1ccc(-c2coc3cc(O)ccc3c2=O)cc1O [CALYCOSIN] | > 100 | > 100 | > 100 | > 100 | > 100 | 98
O=c1c(-c2ccc(O)cc2)coc2cc(O)ccc12 [DAIDZEIN] | > 100 | > 100 | > 100 | > 100 | > 100 | 88.1
COc1c(O)cc2c(c1O)C(=O)C[C@@H](c1ccccc1)O2 [DIHYDROOROXYLIN A] | 38 | 39.3 | 47.6 | 72.6 | 82.7 | 49
COc1cccc2c1C(=O)c1c(O)c3c(c(O)c1C2=O)C[C@@](O)(C(=O)CO)C[C@@H]3O[C@H]1C[C@H](N)[C@H](O)[C@H](C)O1 [DOXORUBICIN] | 7.88 | 0.68 | 9.32 | 8.05 | 8.04 | 0.33
O=c1[nH]cc(F)c(=O)[nH]1 [FLUOROURACIL] | 9.19 | 0.77 | 9.45 | 5.78 | 2.59 | 0.46
COc1ccc(-c2coc3cc(O)ccc3c2=O)cc1 [FORMONONETIN] | > 100 | > 100 | > 100 | > 100 | > 100 | 83.6
O=C1c2ccc(O)cc2O[C@H](c2ccc(O)cc2)[C@H]1O [GARBANZOL] | > 100 | > 100 | > 100 | > 100 | > 100 | > 100
O=C(/C=C/c1ccc(O)cc1)c1ccc(O)cc1O [ISOLIQUIRITIGENIN] | 98.9 | 82.6 | 76.7 | 80.5 | 84 | 21.8
O=C1C[C@@H](c2ccc(O)cc2)Oc2cc(O)ccc21 [LIQUIRTIGENIN] | > 100 | > 100 | > 100 | 97.7 | > 100 | 56.6
COc1ccc([C@H]2COc3cc(O)ccc3C2)c(OC)c1O [MUCRONULATOL] | 9.9 | 24.2 | 18.2 | 30.4 | 8.4 | 7.3
O=C1C[C@@H](c2ccc(O)cc2)Oc2cc(O)cc(O)c21 [NARINGENIN] | > 100 | > 100 | > 100 | > 100 | > 100 | > 100
COc1ccc(-c2coc3cc(O)cc(O)c3c2=O)cc1O [PRATENSEIN] | > 100 | > 100 | > 100 | > 100 | > 100 | > 100
COc1cc2c(cc1OC)[C@@H]1COc3cc(O)ccc3[C@@H]1O2 [SECUNDIFLOROL I] | > 100 | 84.3 | > 100 | 64.9 | > 100 | 44.5
COc1cc([C@H]2OC[C@H]3[C@@H]2CO[C@@H]3c2cc(OC)c(O)c(OC)c2)cc(OC)c1O [SYRINGARESINOL] | > 100 | > 100 | > 100 | > 100 | > 100 | > 100
COc1ccc(-c2coc3cc(O)ccc3c2=O)c(O)c1 [XENOGNOSIN B] | > 100 | 69.8 | > 100 | 34.1 | > 100 | 49.3
